Measurements reported in US20200345733A1, “Microbicidal Pyrimidine or Triazine Containing Compounds” (Janssen Sciences Ireland UC, priority 2002, published 2020).

Legend:
[1] = Cytotoxicity in CEM T cells; type: cell-based; settings: human; viability of CEM T cells decreased by 50%
Description: As a reference system, CEM T cells (obtained from the American Type culture Collection in Rockville, Md.) were used under previously standardized conditions (Balzarini J, et al. AIDS Res Hum Retroviruses 10 Apr. 2000, 16: 517-528). Briefly, cells were suspended at 250,000 cells/ml in RPMI-1640, supplemented with 10% fetal calf serum, 2 mM L-glutamine and 0.075% NaHCO3 and infected with HTLV-IIIB at ˜20 TCID50. 100 μl of a 5-fold dilution series of the drugs were immediately added to 100 μl of the infected cells in 200-μl well plates. After 4 to 5 days of incubation at 37° C., the cultures were examined for syncytium formation. The EC50 is the concentration required to inhibit syncytium formation by 50%. Cytotoxicity was evaluated and given as CC50 values, which is the concentration at which the viability of the CEM cells is decreased by 50%.

T cells = type: cell-based; settings: human, 5 days
Description: Immune Suppressive Concentration (ISC50) is defined as the drug concentration inhibiting 50% of the lymphocyte proliferation. Cellular toxicity was evaluated microscopically by […] staining of co-cultures of MO-DC and allogeneic CD4(+) T cells , cultured for 5 days in the presence of a dilution series of drug. Part of the harvested cells was also used for flowcytometric analysis of lymphocyte blast formation and apopoptosis, based on forward and side scatter.
Additional experiments were done to evaluate if inhibition of DNA synthesis corresponded to increased mortality of T cells or only to decreased blast formation.

HIV-1 (SF162 and 1/BX08) = assay: hu-SCID animal model of vaginal transmission of HIV; type: in vivo; settings: single intravaginal 25 μl gel (carbopol 940 or HEC; 0.225, 0.0225 or 0.00225 mM) 15-20 minutes before challenge
Description: In order to mimic the in vivo transmission that occurs in humans, a hu-SCID animal model of vaginal transmission of HIV for the evaluation of vaginal microbicides was used (Di Fabio et al., AIDS 2001, 15, 2231-2234 Gels made up of carbopol 940 or hydroxyethyl cellulose (HEC), two water soluble polymers, were prepared containing Compound B in different concentrations (0.225 mM; 0.0225 mM or 0.00225 mM). Animals received a single intravaginal application of 25 μl of gel containing Compound B, 15-20 minutes prior to a non invasive vaginal challenge with 2×10^6 human peripheral blood lymphocytes PBL, (hu-PBL) previously infected in vitro with non-syncitium (NSI) strains of HIV-1 (SF162 and 1/BX08). Cell to cell transmission was assessed by p24 production and by quantitative PCR.

HIV-1 RF = assay: Direct antiviral activity, immobilised virus with Jurkat-tat indicator cells; type: cell-based
HIV = assay: Cervical explant model; type: cell-based
Description: Compound B, at a concentration of 10 nM, was able to block infection of the tissue and at a concentration of 100 nM the compound could prevent transfer of infectious virus from migratory dendritic cells to co-cultured T-cells.

[2] = test system: cervical epithelial cells (MEI180); assay: MTT viability of cervical epithelial cells; type: cell-based; settings: exposure 1 hr, 24 hrs or 5 days
Lactobacillus species = assay: In vitro antibacterial activity, lactobacilli; type: cell-based; settings: 33 different Lactobacillus species from recto-vaginal cultures of pregnant women; read-out: minimum inhibitory concentration (MIC50)
Description: Compatibility with lactobacilli and normal vaginal flora is an important requirement for a vaginal microbicide. Activity on pathogens of sexual transmitted diseases is an additional advantage. In in vitro tests for antibacterial activity of compound B, the following susceptibilities were found: • 33 different Lactobacillus species isolated from recto-vaginal cultures of pregnant women were studied.

Compound: Cc1cc(C)c(Nc2ccnc(Nc3ccc(C#N)cc3)n2)c(C)c1 [compound B, 4-[[4-[(2,4,6-trimethylphenyl)amino]-2-pyrimidinyl]amino]benzonitrile]
- CC50 [1]: 1370 nM
- 50% death rate of T cells (T cells): 54,222 nM
- Fifty percent inhibition of blast formation (T cells): 3,916 nM
- Systemic infection after vaginal challenge with HIV-1 infected hu-PBL (p24, quantitative PCR) (HIV-1 (SF162 and 1/BX08)): systemic infection was successfully inhibited
- Concentration providing protection of infection (HIV-1 RF; virus pretreated prior to addition of cells, without removal of the compound): 10 nM
- Concentration providing protection of infection (HIV-1 RF; virus treated 1 hour at 37° C., compound removed by washing, co-culture 8 days): 100 nM
- Concentration able to block infection of the tissue (HIV): 10 nM
- Concentration preventing transfer of infectious virus from migratory dendritic cells to co-cultured T-cells (HIV): 100 nM
- Toxicity (viability, MTT assay) ([2]; 100 nM): some reduction of viability
- Toxicity (viability, MTT assay) ([2]; 50 μM): no toxicity
- MIC50 (Lactobacillus species): > 32 µg/mL
